Laboratory results: patent US20160374911A1, “PLANT EXTRACT COMPOSITION FOR SKIN WHITENING AND REDUCING MELANIN AS WELL AS APPLICATION THEREOF” (CALIWAY BIOPHARMACEUTICALS CO., LTD., priority 2015, published 2016)

Biological target: T1, tyrosinase activity in mouse melanoma B16-F10 cells (Mus musculus, UniProt P11344)
T1 construct: Mouse melanoma B16-F10 cells were used; endogenous in cells; host or cells: mouse melanoma B16-F10 cells
T1 sequence (P11344 19-533): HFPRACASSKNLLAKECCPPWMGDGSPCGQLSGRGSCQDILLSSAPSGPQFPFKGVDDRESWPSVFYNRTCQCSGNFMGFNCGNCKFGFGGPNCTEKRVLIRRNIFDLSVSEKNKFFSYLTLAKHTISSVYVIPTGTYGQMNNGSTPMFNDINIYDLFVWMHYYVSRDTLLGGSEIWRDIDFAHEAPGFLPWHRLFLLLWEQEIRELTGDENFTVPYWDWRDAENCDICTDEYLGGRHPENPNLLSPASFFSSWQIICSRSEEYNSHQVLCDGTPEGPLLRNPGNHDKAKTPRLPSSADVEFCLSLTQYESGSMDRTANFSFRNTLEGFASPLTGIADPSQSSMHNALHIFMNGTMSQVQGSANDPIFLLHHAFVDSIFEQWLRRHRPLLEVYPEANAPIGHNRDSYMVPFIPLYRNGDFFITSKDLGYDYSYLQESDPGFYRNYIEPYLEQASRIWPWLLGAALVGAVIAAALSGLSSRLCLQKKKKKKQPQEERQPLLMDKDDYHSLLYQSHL
Assay: Inhibition of tyrosinase (melanogenesis induction firstly, then administration), L-DOPA conversion
Assay type: cell-based
Conditions: 250 ppm arbutin, 6 ppm resveratrol, 8 ppm curcumin, 8 ppm compositions; 48 hours after α-MSH; absorbance 405 nm within 60 minutes

Row | activity of tyrosinase compared with control group (in words) | Structure (SMILES)
1 | reduced the activity of tyrosinase | OC[C@H]1O[C@@H](Oc2ccc(O)cc2)[C@H](O)[C@@H](O)[C@@H]1O [arbutin]
2 | reduced the activity of tyrosinase | COc1cc(/C=C/C(=O)CC(=O)/C=C/c2ccc(O)c(OC)c2)ccc1O [curcumin]
